Tested on: Primary human lung fibroblasts
Assay: α-SMA positive cell (myofibroblast) count in primary lung fibroblast strains from ILD patients
Format: cell-based
Details: for percentage of α-SMA cells (α-SMA positive cells as a percentage of total cells): pioglitazone 3 μM, 3 days; for percentage of α-SMA cells: 10 days, vehicle 16.5 (SEM 2.7), n=4
Text: Primary human lung fibroblasts were derived from patients with ILD (Idiopathic Pulmonary Fibrosis or Chronic Hypersensitivity Pneumonitis). Patients had clinical, functional and radiologic features which fulfil the diagnostic criteria for an ILD. Briefly, they had progressive dyspnea, bilateral reticulonodular images on chest roentgenogram, restrictive lung functional impairment, with decreased lung volumes and compliance, and hypoxemia at rest that worsened with exercise. The methods used to isolate and culture the lung fibroblasts and count cells are described in Wang et al, Am. J. Physiol. Lung 277:L1158-1164 (1999). In brief, lung fibroblasts were isolated by trypsin digestion of tissues minced to 1 mm^2 fragments. Fibroblast/myofibroblast strains were established in Dulbecco's modified Eagle's medium (or in Hams F-12 medium) supplemented with 10% fetal calf serum, 200 U/ml penicillin, and […] streptomycin, and were cultured in 24-well plates. All cells were cultured at 37° C. in 95% air-5% carbon dioxide. For these experiments, 2 strains were used. In order to quantify myofibroblast numbers, the myofibroblast marker alpha-smooth muscle actin (α-SMA) was measured. […] In a first experiment, the 2 strains were grown to 70-80% confluence. The cells were exposed to pioglitazone at 3 μM or drug vehicle for 3 days, after which the number of α-SMA positive cells was quantified (sample size 24) as a percentage of total cells. For one strain, the percentage of α-SMA cells was 27 (standard error mean 3.7) with control and 17 (standard error mean 2.5) in the presence of 3 μM pioglitazone. The drug effect was statistically significant (P≦0.01 Student-Newman-Keuls Multiple Comparisons Test). For the second strain, the respective values were 30.6 (standard error of mean 2.7) and 26 (standard error of mean 2.9) although the difference was not statistically significant. In a second experiment, the effect of pioglitazone on the second strain was studied again, but the exposure time was increased to 10 days and the effects of lower and higher concentrations (1 μM and 10 μM) were studied. After 10 days treatment with vehicle, the percentage of α-SMA cells was 16.5 (standard error of mean 2.7); after 10 days treatment with pioglitazone at 1 μM the percentage was 15.3 (standard error of mean 1.8); and after treatment with pioglitazone at 10 μM the percentage of α-SMA cells was 7.4 (standard error of mean 1.8) (all n=4). The reduction in α-SMA cells by 10 μM pioglitazone was significant (P≦0.05 Dunnett Multiple Comparisons Test).

CCc1ccc(CCOc2ccc(CC3SC(=O)NC3=O)cc2)nc1 (stereo not shown) [pioglitazone]
percentage of α-SMA cells (α-SMA positive cells as a percentage of total cells) (first strain, control 27 (SEM 3.7), statistically significant P≦0.01, sample size 24): 17 (standard error mean 2.5) percentage | percentage of α-SMA cells (second strain, pioglitazone 1 μM): 15.3 (standard error of mean 1.8) percentage | percentage of α-SMA cells (α-SMA positive cells as a percentage of total cells) (second strain, control 30.6 (SEM 2.7), difference not statistically significant): 26 (standard error of mean 2.9) percentage | percentage of α-SMA cells (second strain, pioglitazone 10 μM, significant P≦0.05): 7.4 (standard error of mean 1.8) percentage

From patent publication US20060013775A1, “Use of ppar activators for the treatment of pulmonary fibrosis” (priority 2001, published 2006)
